{
  "source": "patent US10274490B2",
  "about": "“Magnetic labeling of bacteria” (The General Hospital Corporation, priority 2012, dated 2019)",
  "key": {"E. coli (Gram-negative)": {"test_system": "E. coli (Gram-negative)", "assay": "Confocal microscopy control experiment", "format": "cell-based, Escherichia coli", "conditions": "Crystal Violet-TCO stained, decolorized", "method": "(§1) Bacterial cells in media were first washed with phosphate buffered saline solution (PBS). For μNMR measurements, absorbance measurements, confocal microscopy, and transmission electron microscopy (TEM), the bacteria (10^8 in 100 μl) were stained with 200 μM CV-TCO in 20% ethanol solution containing 8 mg/ml ammonium oxalate for 5 min. at room temperature, and washed with PBS. Then the bacteria were treated with Gram Iodine solution for 1 min. and decolorized with 95% ethanol solution. For μNMR and confocal microscopy, bacteria were incubated with 50 μg/ml MFNP-Tz in PBS for 20 min. at room temperature, and washed twice with PBS. For confocal microscopy, labeled bacteria were mounted on microscopic slides with Vectashield containing propium iodide (Vector Laboratories), and imaged. For TEM, the stained and decolorized bacteria were incubated with 50 μg/ml GNP-Tz in PBS for 1 h, washed with PBS, and dehydrated with graded ethanol series before applying onto a carbon grid (Ted Pella).\nThe green channel (left) indicates MNFP-Tz, and the red channel (right) indicates propidium iodide. (Scale bar=5 μm)."}, "[1]": {"test_system": "Gram-positive and Gram-negative bacteria", "assay": "μNMR detection before and after decolorization", "format": "cell-based", "method": "as §1\nThe magnetic labeling detection strategy using Crystal Violet-TCO can be applied to detect both Gram-positive and Gram-negative bacteria. A modified protocol was adopted in which staining was performed without the decolorization process, which results in labeling both Gram-positive and Grain-negative bacteria, since the Gram-negative bacteria also retain the Crystal Violet-TCO. […]"}, "[2]": {"assay": "Molar extinction coefficient", "format": "physicochemical", "conditions": "592 nm"}, "[3]": {"test_system": "S. aureus (Gram-positive)", "assay": "Gram staining, bright field microscopy", "format": "cell-based, Staphylococcus aureus", "conditions": "1 mM Crystal Violet-TCO 3 min, iodine, 95% ethanol, Safranin counterstain", "method": "Bacterial cells were smeared onto microscopic slides, and stained with standard crystal violet (20 mM) or CV-TCO (1 mM) in 20% ethanol solution containing 8 mg/ml ammonium oxalate for 3 min. After washing with deionized water, slides were treated with Gram Iodine (BD Biosciences), decolorized with 95% ethanol solution, and counterstained with Gram safranin (BD Biosciences). Slides were observed using a bright field light microscope.\nTo test the efficacy of Crystal Violet-TCO as a staining agent for Gram-positive bacteria, three representative samples were prepared: Staphylococcus aureus (S. aureus; Gram-positive), Escherichia coli (E. coli; Gram-negative), and the mixture of both bacterial species. Bacterial smears on glass slides were stained with a solution of Crystal Violet-TCO (1 mM) or Crystal Violet for 3 min., followed by treatment with Gram's iodine solution for one minute, decolorization with 95% ethanol, and counterstaining with red Safranin solution."}, "[4]": {"test_system": "S. aureus (Gram-positive)", "assay": "Absorbance at 595 nm / UV-visible spectrometry of stained bacteria", "format": "cell-based, Staphylococcus aureus", "conditions": "E. coli (G−) as comparison", "method": "as §1"}, "Gram-positive species": {"test_system": "Gram-positive species", "assay": "μNMR cellular relaxivity of bacteria stained with Crystal Violet-TCO and labeled with MFNP-Tz", "format": "cell-based", "conditions": "panel of bacterial species", "method": "Bacterial cells in media were first washed with phosphate buffered saline solution (PBS). For μNMR measurements, absorbance measurements, confocal microscopy, and transmission electron microscopy (TEM), the bacteria (10^8 in 100 μl) were stained with 200 μM CV-TCO in 20% ethanol solution containing 8 mg/ml ammonium oxalate for 5 min. at room temperature, and washed with PBS. Then the bacteria were treated with Gram Iodine solution for 1 min. and decolorized with 95% ethanol solution. For μNMR and confocal microscopy, bacteria were incubated with 50 μg/ml MFNP-Tz in PBS for 20 min. at room temperature, and washed twice with PBS. […]\nTo test whether bacteria labelled with Crystal Violet-TCO could be magnetically labeled via cycloaddition to the TCO group, bacteria stained with Crystal Violet-TCO were incubated with magnetofluorescent nanoparticles modified with tetrazine (MFNP-Tz). […] The T2 relaxation values of samples were measured using a miniaturized μNMR system. For comparative analyses, the absorption (at 595 nm) of the same samples was also measured. Cellular relaxivity (r2) was obtained by normalizing the measured 1/T2 values with bacterial concentration, and the r2 differences (Δr2) between targeted and control samples were calculated. […]"}, "S. aureus [5]": {"test_system": "S. aureus", "assay": "Confocal microscopy (MFNP-Tz) and TEM (GNP-Tz) of Crystal Violet-TCO stained bacteria", "format": "cell-based, Staphylococcus aureus", "method": "as §1\nThe left, middle, and right panels show images of the red channel, green channel, and a merged image of the red and green channels, respectively (Red: propidium iodide for nuclear staining; Green: MNFP-Tz staining; Scale bar=10 μm).\nGold nanoparticles were used instead of magnetic nanoparticles to obtain higher contrast."}, "S. aureus [6]": {"test_system": "S. aureus", "assay": "μNMR sensitivity of the assay, serially diluted bacterial samples", "format": "cell-based, Staphylococcus aureus", "conditions": "Crystal Violet-TCO and MFNP-Tz", "method": "as §1\nTo measure the sensitivity of the assay, measurements with serially diluted bacterial samples were performed and established a detection limit of about 4,000 bacteria with the experimental set-up used. […] Limit of detection was ˜4000 CFU."}, "Nocardia Farcinica": {"test_system": "Nocardia Farcinica", "assay": "Bioorthogonal labeling with Trehalose-TCO and Oregon Green-Tz, cell fluorescence microscopy", "format": "cell-based", "method": "Nocardia Farcinica bacteria (ATCC 3308) at an OD600 of 0.8 in growth medium (0.1 mL) was added 100 μM Trehalose-TCO, Trehalose-fluorescein or DMSO (as a control) in growth media (1% DMSO). Bacteria were incubated at 37° C. with shaking for 16 h. Bacteria were then centrifuged (7 min., 8000 rpm) and washed (2×100 μL PBS solution containing 2% fetal bovine serum (FBS) and 1 mg/mL bovine serum albumin (BSA) PBS-F).\nBacteria treated with Trehalose-TCO were incubated with 50 μg/mL MFNP-Tz MNFP-Tz or 10 μM Oregon Green-Tz for 20 min. in PBS-F. Bacteria were then centrifuged (7 min., 8000 rpm) and washed (2×100 μL PBS-F). Bacteria were then fixed with 10% PFA in PBS (100 μL) for 20 min., centrifuged and resuspended in 10 μL PBS. 3 μL were spread out on a 96 wells plates (Nunc, Cat No 137103 (Roskilde, Denmark, pre-wet with PBS-F). Bacteria were dried out in an incubator 37 C for 30 min. then mounting media containing […] was added to samples. Imaging was done on a DeltaVision microscope (Applied Precision Instruments) at 60×."}, "Gram-positive bacteria [7]": {"test_system": "Gram-positive bacteria", "assay": "Magnetic resonance detection of bacteria labeled with daptomycin-TCO and MFNP-Tz", "format": "cell-based", "conditions": "daptomycin-TCO then MFNP-Tz", "method": "(§2) For two-step labeling using Daptomycin-TCO, the drug conjugates were incubated in buffer solution containing 5 mM 4-(2-hydroxyethyl)-1-piperazineethanesulfonic acid (HEPES), 5 mM CaCl2, 2% FBS, and 1 mg/ml BSA at room temperature for 30 min. After washing twice with PBS-F, bacterial cells were incubated with 50 μg/ml MFNP-Tz in PBS-F for 20 min. at room temperature.\nAll μNMR measurements were performed using the portable NMR system recently developed for point-of-care operations as described by Issadore, et al. Lab Chip 2011, 11, 2282-87. The polarizing magnetic field was ˜0.5 T. Transverse relaxation times were measured on 1-2 μL sample volumes, using Carry-Purcell-Meiboom-Gill pulse sequences with the following parameters: echo time, 3 ms; repetition time, 4 s; number of 180° pulses per scan, 900; number of scans, 7.\n(§3) Daptomycin-TCO was used to magnetically label bacteria using methods similar to those described in Example 1."}, "Gram-positive bacteria [8]": {"test_system": "Gram-positive bacteria", "assay": "Fluorescence spectrometry of bacteria labeled with daptomycin-TCO and MFNP-Tz", "format": "cell-based", "conditions": "daptomycin-TCO at various concentrations, then MFNP-Tz", "method": "as §2\nFor fluorescence spectrometry, μNMR measurements, and flow cytometry, the cells were fixed in 10% paraformaldehyde (PFA) for 30 min., and then exchanged into PBS solution. Fluorescence measurements were taken using the Safire2 microplate reader (TECAN, Mannedorf, Switzerland). Increased relative fluorescence intensity (% RFU) values were calculated as 100×(Itarget−Inon)/Inon, where Itarget and Inon are intensity values of targeted and non-targeted bacteria, respectively. Flow cytometry was performed using LSRII (BD Biosciences). All labeling experiments and measurements were performed at least 3 times to confirm the reproducibility and robustness of the method.\nas §3"}, "Gram-positive bacteria [9]": {"molecular_target": "Gram-positive bacteria", "assay": "Competitive inhibition of vancomycin-TCO labeling by unmodified vancomycin", "conditions": "1-200 μM unmodified vancomycin added to 20 μM vancomycin-TCO; fluorescence and magnetic resonance; all Gram-positive bacteria; read-out: inhibition binding constant (Ki)", "method": "For two-step labeling, the washed cells were incubated with 1-20 μM vancomycin TCO in PBS-F at room temperature for 30 min. For competition studies, 1-200 μM unmodified vancomycin was added to 20 μM vancomycin-TCO.\nTo further characterize the binding properties of vancomycin-TCO, competitive inhibition studies were performed in which unmodified vancomycin was introduced together with vancomycin-TCO, before reacting with MFNP-Tz.\nFIGS. 8A and 8B show the results of competition studies of vancomycin-TCO using both fluorescence (FIG. 8A) and magnetic resonance (FIG. 8B) measurements. […] The inhibition binding constant (Ki) was about 6 μM for all Gram-positive bacteria, a value which was similar to that of vancomycin-TCO."}},
  "data": [
    {"smiles": "CC[N+](CCNC(=O)OC1CC/C=C/CCC1)=C1C=CC(=C(c2ccc(N(C)C)cc2)c2ccc(N(C)C)cc2)C=C1", "note": "(centres unmarked) [Crystal Violet-TCO, (E)-N-(4-(bis(4-(dimethylamino)phenyl)methylene)cyclohexa-2,5-dien-1-ylidene)-2-(((cyclooct-4-en-1-yloxy)carbonyl)amino)-N-ethylethanaminium chloride]", "values": [
      {"measurement": "confocal microscopy MFNP-Tz signal", "setting": "E. coli (Gram-negative)", "result": "absence of MFNP-Tz signal"},
      {"measurement": "μNMR detection", "setting": "[1]; after decolorization", "result": "only Gram-positive species retained their signals"},
      {"measurement": "μNMR detection", "setting": "[1]; before decolorization", "result": "both Gram-positive and negative bacteria could be magnetically labeled and detected"},
      {"measurement": "molar extinction coefficient ε592", "setting": "[2]", "result": 133013, "unit": "L/mol/cm"},
      {"measurement": "colour after Gram staining and decolorization", "setting": "[3]", "result": "remained purple"},
      {"measurement": "UV absorbance of stained bacteria", "setting": "[4]", "result": "intense absorption at 595 nm"},
      {"measurement": "cellular relaxivity of Gram-positive species", "setting": "Gram-positive species", "result": "significantly higher cellular relaxivity values when compared to Gram-negative bacteria"},
      {"measurement": "transmission electron microscopy observation", "setting": "S. aureus [5]; CV-TCO then GNP-Tz", "result": "Gold nanoparticles were found distributed throughout the bacterial surface"},
      {"measurement": "confocal microscopy observation", "setting": "S. aureus [5]; Crystal Violet-TCO then MFNP-Tz", "result": "uniform and high fluorescence signals in the bacterial cell wall"},
      {"measurement": "detection limit", "setting": "S. aureus [6]", "result": "about 4,000 bacteria"},
      {"measurement": "Limit of detection", "setting": "S. aureus [6]; ΔR2", "result": "~4000", "unit": "CFU"}
    ]},
    {"smiles": "C[C@]1(O[C@H]2O[C@H](CO)C(O)C(O)C2NC(=O)OC2CC/C=C/CCC2)OC(CO)[C@@H](O)C(O)C1O", "note": "(stereo partly drawn) [Trehalose-TCO, 1-deoxy-α-D-gluco-hept-2-ulopyranosyl-(2→1)-2-deoxy-2-((E)-cyclooct-4-en-1-yl carbamate)-α-D-glucopyranoside]", "values": [
      {"measurement": "kinetics of incorporation", "setting": "Nocardia Farcinica; 0-16 h, subsequent labeling with Oregon Green-Tz", "result": "gradual increase in the extent of labeling"},
      {"measurement": "cell fluorescence", "setting": "Nocardia Farcinica; 100 μM Trehalose-TCO 16 h, then 10 μM Oregon Green-Tz", "result": "Bright green fluorescence of the cells is observed"}
    ]},
    {"smiles": "CN(C)c1ccc(C(=C2C=CC(=[N+](C)C)C=C2)c2ccc(N(C)C)cc2)cc1", "note": "[crystal violet, reference compound]", "values": [
      {"measurement": "molar extinction coefficient ε592", "setting": "[2]", "result": 89146, "unit": "L/mol/cm"}
    ]},
    {"smiles": "CCCCCCCCCC(=O)N[C@@H](Cc1c[nH]c2ccccc12)C(=O)N[C@@H](CC(N)=O)C(=O)N[C@@H](CC(=O)O)C(=O)N[C@@H]1C(=O)NCC(=O)N[C@@H](CCCNC(=O)OC2CC/C=C/CCC2)C(=O)N[C@@H](CC(=O)O)C(=O)N[C@H](C)C(=O)N[C@@H](CC(=O)O)C(=O)NCC(=O)N[C@H](CO)C(=O)N[C@@H]([C@@H](C)CC(=O)O)C(=O)N[C@@H](CC(=O)c2ccccc2N)C(=O)O[C@@H]1C", "note": "(some centres unmarked) [daptomycin-TCO]", "values": [
      {"measurement": "cellular relaxivity", "setting": "Gram-positive bacteria [7]", "result": "1.32 s^−1[CFU/μL]^−1"},
      {"measurement": "increased relative fluorescence intensities", "setting": "Gram-positive bacteria [8]", "result": "up to 220%"}
    ]},
    {"smiles": "CN[C@H](CC(C)C)C(=O)N[C@H]1C(=O)N[C@@H](CC(N)=O)C(=O)N[C@H]2C(=O)N[C@H]3C(=O)N[C@H](C(=O)N[C@H](C(=O)O)c4cc(O)cc(O)c4-c4cc3ccc4O)[C@H](O)c3ccc(c(Cl)c3)Oc3cc2cc(c3O[C@@H]2O[C@H](CO)[C@@H](O)[C@H](O)[C@H]2O[C@H]2C[C@](C)(N)[C@H](O)[C@H](C)O2)Oc2ccc(cc2Cl)[C@H]1O", "note": "[vancomycin]", "values": [
      {"measurement": "Ki", "setting": "Gram-positive bacteria [9]", "result": "~6", "unit": "µM"}
    ]}
  ]
}
